Literature values as cited in publication PMC7520961, “Safety evaluation of the interchangeable use of robenacoxib in commercially-available tablets and solution for injection in cats” (BMC Veterinary Research, 2020).

Key:
anesthetized cats = conditions: cited from earlier work
humans = conditions: in vivo; cited from earlier work

Row | Compound | QT interval maximum (anesthetized cats; almokalant infusion) | lengthening of the QT interval (anesthetized cats; almokalant infusion) | QT interval before lengthening (anesthetized cats; before almokalant effect) | adverse oral reaction (humans)
1 | CCC[S+]([O-])CCCN(CC)CC(O)COc1ccc(C#N)cc1 (stereo not shown) [almokalant] | 349 ± 8.0 ms | approximately 45% | 241 ± 6.0 ms | 
2 | CS(=O)(=O)c1ccc(C2=C(c3ccccc3)C(=O)OC2)cc1 [rofecoxib] |  |  |  | Oral ulceration
